# Laboratory results taken from patent US20260325417A1, “TOPICAL SKIN COMPOSITION CONTAINING 1,3-PROPANEDIOL AS ACTIVE INGREDIENT FOR MAINTAINING MICROBIOME BALANCE IN SKIN” (ACTIVON CO.,LTD., priority 2022, published 2026).
# What was measured:
# [1] = system: S. epidermidis; assay: Comparison of diol compounds, growth of beneficial bacteria; assay type: cell-based, Staphylococcus epidermidis; parameters: key to Effect on the growth of beneficial bacteria (S. epidermidis): ++: Growth promotion; +: No effect; −: Growth inhibition; − −: 50% or more growth inhibition
# Text: (§1) FIG. 4 illustrates the results of a comparative analysis of the effects of diol compounds, specifically 1,3-propanediol, 2-methyl-1,3-propanediol, 1,3-butanediol, 2,3-butanediol, 1,2-pentanediol, and 1,2-hexanediol on the growth of harmful bacteria (upper graph) and beneficial bacteria (lower graph). FIG. 4A: 1,3-propanediol, FIG. 4B: 2-methyl-1,3-propanediol; FIG. 4C: 1,3-butanediol; FIG. 4D: 2,3-butanediol; FIG. 4E: 1,2-pentanediol; FIG. 4F: 1,2-Hexanediol.
# (§2) • 1) Staphylococcus epidermidis ATCC 12228 and Staphylococcus aureus ATCC 6538 strains were obtained from ThermoFisher Scientific and cultured in tryptic soy broth (culture conditions: 32° C. for 18 hours). After culturing, they were diluted with 0.85% NaCl to adjust the absorbance (600 nm) to 0.5-0.6. • 2) 1,3-propanediol was obtained from Sigma-Aldrich. • 3) 2-methyl-1,3-propanediol, 1,3-butanediol, 2,3-butanediol, 1,2-pentanediol, and 1,2-hexanediol were all obtained from Sigma-Aldrich. • 4) Fructan was obtained from Sigma-Aldrich. • 5) Yeast extract was obtained from Sigma-Aldrich.
# [2] = system: Staphylococcus aureus ATCC 6538; assay: Combination of 1,3-propanediol and fructan, growth of harmful bacteria; assay type: cell-based; details: 1,3-propanediol 1.5 wt %; fructan 0.00 wt %
# Description: as §2
# (§3) In order to evaluate the effect of 1,3-propanediol and fructan on the skin microbiome, the effect on the growth rate of Staphylococcus epidermidis ATCC 12228, a representative beneficial skin bacterium, and Staphylococcus aureus ATCC 6538, a harmful skin bacterium, was confirmed. Staphylococcus epidermidis ATCC 12228 and Staphylococcus aureus ATCC 6538 were cultured in tryptic soy broth at 32° C. for 18 hours or more, then diluted with 0.85% NaCl and adjusted to have an absorbance (600 nm) of 0.5 to 0.6.
# (§4) S. epidermidis and S. aureus prepared above were inoculated to achieve a concentration of 1% (v/v) in 10% tryptic soy broth to which 1,3-propanediol was added at a fixed concentration of 1.5 wt % and fructan was added at each concentration in the table below. […]
# [3] = system: S. aureus; assay: Comparison of diol compounds, growth of harmful bacteria; assay type: cell-based, Staphylococcus aureus
# Text: as §1, §2
# [4] = system: S. aureus; assay: Combination of 1,3-propanediol and yeast extract, growth of harmful bacteria; assay type: cell-based, Staphylococcus aureus; details: 1,3-propanediol 1.5 wt %; yeast extract 0.00 wt %
# Description: as §2, §3, §4
# [5] = system: Staphylococcus aureus ATCC 6538; assay: Growth of harmful skin bacteria, single culture with 1,3-propanediol (absorbance 600 nm); assay type: cell-based; details: for Effect on the growth of harmful bacteria (S. aureus): absorbance 600 nm, 2 to 16 hours vs control
# Description: as §2
# The effect of 1,3-propanediol on the growth of Staphylococcus aureus ATCC 6538 was analyzed.
# (§5) For this purpose, 1,3-propanediol was diluted with 10% tryptic soy broth to prepare concentrations of 0.05, 0.1, 0.2, 0.5, 1.0, 3.0, 5.0, 10, 20, and 25 wt %.
# After adding 1,3-propanediol prepared at each concentration to 10% tryptic soy broth, S. aureus was inoculated to achieve a concentration of 1% (v/v).
# (§6) Afterwards, the cells were cultured at a temperature of 32° C. for 24 hours, and the absorbance (600 nm) was measured at 2-hour intervals to analyze the growth of beneficial skin bacteria.
# (§7) At this time, 10% tryptic soy broth to which 1,3-propanediol was not added was set as a control group.
# The criteria for determining the effect on the growth of harmful bacteria were as follows: when the absorbance (600 nm) was measured while culturing for 2 to 16 hours after inoculation of S. aureus, if the absorbance was lower than that of 10% tryptic soy broth (control group) to which 1,3-propanediol was not added, it was determined that the growth of S. aureus was inhibited. If there was no difference in absorbance, it was determined that there was no effect.
# [6] = system: S. epidermidis; assay: Combination of 1,3-propanediol and yeast extract, growth of beneficial bacteria; assay type: cell-based, Staphylococcus epidermidis; details: 1,3-propanediol 1.5 wt %; yeast extract 0.00 wt %
# [7] = system: Staphylococcus epidermidis ATCC 12228; assay: Combination of 1,3-propanediol and fructan, growth of beneficial bacteria; assay type: cell-based; details: 1,3-propanediol 1.5 wt %; fructan 0.00 wt %
# Description: as §2, §3, §4
# [8] = system: Staphylococcus epidermidis ATCC 12228; assay: Growth of beneficial skin bacteria, single culture with 1,3-propanediol (absorbance 600 nm); assay type: cell-based; details: for Effect on the growth of beneficial bacteria (S. epidermidis): absorbance 600 nm, 2 to 16 hours vs control
# Description: as §2
# The effect of 1,3-propanediol on the growth of Staphylococcus epidermidis ATCC 12228 was analyzed.
# as §5
# After adding the prepared 1,3-propanediol at each concentration to 10% tryptic soy broth, S. epidermidis was inoculated to achieve a concentration of 1% (v/v).
# as §6, §7
# The criteria for determining the effect on the growth of beneficial bacteria were as follows: when the absorbance (600 nm) was measured while culturing for 2 to 16 hours after inoculation of S. epidermidis, if the absorbance was higher than that of 10% tryptic soy broth (control group) to which 1,3-propanediol was not added, it was determined that the growth of S. epidermidis was promoted. If there was no difference, it was determined that there was no effect, and if the absorbance was lower, it was determined that there was inhibition. […] As a result, it can be seen that when the concentration of 1,3-propanediol is in a specific range exceeding 0.05 wt % and less than 20 wt %, it promotes the growth of S. epidermidis.
# [9] = when the concentration increases
smiles,measurement,setting,value
"OCCCO [1,3-propanediol]",Effect on the growth of beneficial bacteria (S. epidermidis),[1]; diol compound 0.1 wt %,++
same,Effect on the growth of beneficial bacteria (S. epidermidis),[1]; diol compound 1 wt %,++
same,Effect on the growth of beneficial bacteria (S. epidermidis),[1]; diol compound 5 wt %,+
same,Effect on the growth of beneficial bacteria (S. epidermidis),[1]; diol compound 10 wt %,+
same,Effect on the growth of beneficial bacteria (S. epidermidis),[1]; diol compound 20 wt %,+
same,Growth of beneficial bacteria (summary),[1]; [9],the growth of beneficial bacteria is promoted
same,Effect on the growth of harmful bacteria (S. aureus),[2],++ (Significant growth inhibition (change in absorbance (decrease) 5%))
same,Effect on the growth of harmful bacteria (S. aureus),[3]; diol compound 0.1 wt %,++
same,Effect on the growth of harmful bacteria (S. aureus),[3]; diol compound 1 wt %,++
same,Effect on the growth of harmful bacteria (S. aureus),[3]; diol compound 5 wt %,+++ (50% or more inhibition)
same,Effect on the growth of harmful bacteria (S. aureus),[3]; diol compound 10 wt %,+++ (50% or more inhibition)
same,Effect on the growth of harmful bacteria (S. aureus),[3]; diol compound 20 wt %,+++ (50% or more inhibition)
same,Growth of harmful bacteria (summary),[3]; [9],the growth of harmful bacteria is inhibited
same,Effect on the growth of harmful bacteria (S. aureus),[4],++ (Significant growth inhibition (change in absorbance (decrease) 5%))
same,Effect on the growth of harmful bacteria (S. aureus),[5]; 0.05 wt %,No effect
same,Effect on the growth of harmful bacteria (S. aureus),[5]; 0.1 wt %,No effect
same,Effect on the growth of harmful bacteria (S. aureus),[5]; 0.2 wt %,No effect
same,Effect on the growth of harmful bacteria (S. aureus),[5]; 0.5 wt %,No effect
same,Effect on the growth of harmful bacteria (S. aureus),[5]; 1.0 wt %,No effect
same,Effect on the growth of harmful bacteria (S. aureus),[5]; 3.0 wt %,Inhibited
same,Effect on the growth of harmful bacteria (S. aureus),[5]; 5.0 wt %,Inhibited
same,Effect on the growth of harmful bacteria (S. aureus),[5]; 10 wt %,Inhibited
same,Effect on the growth of harmful bacteria (S. aureus),[5]; 20 wt %,Inhibited
same,Effect on the growth of harmful bacteria (S. aureus),[5]; 25 wt %,Inhibited
same,Concentration that did not inhibit the growth of S. aureus,[5]; single culture,≤ 1.0 wt %
same,Effect on the growth of beneficial bacteria (S. epidermidis),[6],+ (Mild growth promotion (change in absorbance (increase) 3%))
same,Effect on the growth of beneficial bacteria (S. epidermidis),[7],+ (Mild growth promotion (change in absorbance (increase) 3%))
same,Effect on the growth of beneficial bacteria (S. epidermidis),[8]; 0.05 wt %,No effect
same,Effect on the growth of beneficial bacteria (S. epidermidis),[8]; 0.1 wt %,Promoted
same,Effect on the growth of beneficial bacteria (S. epidermidis),[8]; 0.2 wt %,Promoted
same,Effect on the growth of beneficial bacteria (S. epidermidis),[8]; 0.5 wt %,Promoted
same,Effect on the growth of beneficial bacteria (S. epidermidis),[8]; 1.0 wt %,Promoted
same,Effect on the growth of beneficial bacteria (S. epidermidis),[8]; 3.0 wt %,Promoted
same,Effect on the growth of beneficial bacteria (S. epidermidis),[8]; 5.0 wt %,Promoted
same,Effect on the growth of beneficial bacteria (S. epidermidis),[8]; 10 wt %,Promoted
same,Effect on the growth of beneficial bacteria (S. epidermidis),[8]; 20 wt %,No effect
same,Effect on the growth of beneficial bacteria (S. epidermidis),[8]; 25 wt %,Inhibited
same,Concentration that inhibited the growth of S. epidermidis,[8]; single culture,exceeded 25 wt %
"CC(O)C(C)O (stereo not shown) [2,3-butanediol]",Effect on the growth of beneficial bacteria (S. epidermidis),[1]; diol compound 0.1 wt %,++
same,Effect on the growth of beneficial bacteria (S. epidermidis),[1]; diol compound 1 wt %,−
same,Effect on the growth of beneficial bacteria (S. epidermidis),[1]; diol compound 5 wt %,− − (50% or more growth inhibition)
same,Effect on the growth of beneficial bacteria (S. epidermidis),[1]; diol compound 10 wt %,− − (50% or more growth inhibition)
same,Effect on the growth of beneficial bacteria (S. epidermidis),[1]; diol compound 20 wt %,− − (50% or more growth inhibition)
same,Effect on the growth of harmful bacteria (S. aureus),[3]; diol compound 0.1 wt %,+
same,Effect on the growth of harmful bacteria (S. aureus),[3]; diol compound 1 wt %,+
same,Effect on the growth of harmful bacteria (S. aureus),[3]; diol compound 5 wt %,++
same,Effect on the growth of harmful bacteria (S. aureus),[3]; diol compound 10 wt %,+++ (50% or more inhibition)
same,Effect on the growth of harmful bacteria (S. aureus),[3]; diol compound 20 wt %,+++ (50% or more inhibition)
"CC(CO)CO [2-methyl-1,3-propanediol]",Effect on the growth of beneficial bacteria (S. epidermidis),[1]; diol compound 0.1 wt %,+
same,Effect on the growth of beneficial bacteria (S. epidermidis),[1]; diol compound 1 wt %,+
same,Effect on the growth of beneficial bacteria (S. epidermidis),[1]; diol compound 5 wt %,−
same,Effect on the growth of beneficial bacteria (S. epidermidis),[1]; diol compound 10 wt %,− − (50% or more growth inhibition)
same,Effect on the growth of beneficial bacteria (S. epidermidis),[1]; diol compound 20 wt %,− − (50% or more growth inhibition)
same,Effect on the growth of harmful bacteria (S. aureus),[3]; diol compound 0.1 wt %,+
same,Effect on the growth of harmful bacteria (S. aureus),[3]; diol compound 1 wt %,+
same,Effect on the growth of harmful bacteria (S. aureus),[3]; diol compound 5 wt %,++
same,Effect on the growth of harmful bacteria (S. aureus),[3]; diol compound 10 wt %,+++ (50% or more inhibition)
same,Effect on the growth of harmful bacteria (S. aureus),[3]; diol compound 20 wt %,+++ (50% or more inhibition)
